In article PMC7549094 (Journal of Medicinal Chemistry, 2020):

What was measured:
[1] = target: hr H1 (Homo sapiens, UniProt P35367); assay: receptor profile (Table S4); assay type: binding
[2] = target: T1, hr 5-HT1A ag (Homo sapiens, UniProt P08908); assay: receptor profile (Table S4); assay type: biochemical
T1 sequence (P08908 1-422): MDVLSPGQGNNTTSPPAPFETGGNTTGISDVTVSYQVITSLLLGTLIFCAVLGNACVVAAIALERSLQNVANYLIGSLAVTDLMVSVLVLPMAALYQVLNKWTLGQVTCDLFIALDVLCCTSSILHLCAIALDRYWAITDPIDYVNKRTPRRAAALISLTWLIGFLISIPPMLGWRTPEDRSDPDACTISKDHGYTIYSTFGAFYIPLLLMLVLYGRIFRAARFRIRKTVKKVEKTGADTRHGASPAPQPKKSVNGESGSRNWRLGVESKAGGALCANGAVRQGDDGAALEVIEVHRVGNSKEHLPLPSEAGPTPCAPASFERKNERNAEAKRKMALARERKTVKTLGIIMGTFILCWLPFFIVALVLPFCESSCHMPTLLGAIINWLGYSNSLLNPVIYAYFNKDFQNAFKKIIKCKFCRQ

[3] = target: hr NET (Homo sapiens, UniProt P23975); assay: receptor profile (Table S4); assay type: binding
[4] = target: hr GHS (Homo sapiens, UniProt Q92847); assay: receptor profile (Table S4); assay type: binding
[5] = target: T2, hr Alpha2C (Homo sapiens, UniProt P18825); assay: receptor profile (Table S4); assay type: binding
T2 sequence (P18825 1-462): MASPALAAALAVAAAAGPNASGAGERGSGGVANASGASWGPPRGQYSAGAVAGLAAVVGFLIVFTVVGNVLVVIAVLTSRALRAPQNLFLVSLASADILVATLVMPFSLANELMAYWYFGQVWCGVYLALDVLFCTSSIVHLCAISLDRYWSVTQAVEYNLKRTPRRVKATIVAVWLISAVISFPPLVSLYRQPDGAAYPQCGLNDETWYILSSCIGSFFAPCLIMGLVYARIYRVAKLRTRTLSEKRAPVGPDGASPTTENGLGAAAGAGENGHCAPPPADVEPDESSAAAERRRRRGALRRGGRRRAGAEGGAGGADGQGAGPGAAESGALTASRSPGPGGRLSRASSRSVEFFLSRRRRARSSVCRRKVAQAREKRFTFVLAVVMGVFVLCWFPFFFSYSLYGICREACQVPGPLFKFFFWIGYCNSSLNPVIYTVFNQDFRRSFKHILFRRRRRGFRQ

[6] = target: hr Nav1.5 (Homo sapiens, UniProt Q14524); assay: receptor profile (Table S4); details: hr Nav1.5
[7] = target: Nav1.5 (Homo sapiens, UniProt Q14524); assay: receptor profile (Table S4); details: human
[8] = metabolite profile in mouse hepatocytes; assay type: in vitro ADME; details: 10 μM of 1 for 4 h, UV 250 nm, normalized to largest peak
[9] = target: T3, hr Ad3 (Homo sapiens, UniProt P0DMS8); assay: receptor profile (Table S4); assay type: binding
T3 sequence (P0DMS8 1-318): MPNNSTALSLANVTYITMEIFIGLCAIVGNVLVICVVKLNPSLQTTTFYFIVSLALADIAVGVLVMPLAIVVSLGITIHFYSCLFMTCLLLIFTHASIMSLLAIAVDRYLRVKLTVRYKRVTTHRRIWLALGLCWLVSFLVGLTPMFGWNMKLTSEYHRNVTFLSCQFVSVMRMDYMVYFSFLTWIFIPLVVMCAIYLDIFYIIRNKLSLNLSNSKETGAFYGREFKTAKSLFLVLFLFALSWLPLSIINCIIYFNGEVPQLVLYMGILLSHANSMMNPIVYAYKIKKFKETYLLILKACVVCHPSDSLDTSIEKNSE

[10] = male Sprague–Dawley rat, 10 mg/kg PO; dose-normalized
[11] = target: T4, hr GR antag (Homo sapiens, UniProt P04150); assay: receptor profile (Table S4); assay type: biochemical
T4 sequence (P04150 1-777): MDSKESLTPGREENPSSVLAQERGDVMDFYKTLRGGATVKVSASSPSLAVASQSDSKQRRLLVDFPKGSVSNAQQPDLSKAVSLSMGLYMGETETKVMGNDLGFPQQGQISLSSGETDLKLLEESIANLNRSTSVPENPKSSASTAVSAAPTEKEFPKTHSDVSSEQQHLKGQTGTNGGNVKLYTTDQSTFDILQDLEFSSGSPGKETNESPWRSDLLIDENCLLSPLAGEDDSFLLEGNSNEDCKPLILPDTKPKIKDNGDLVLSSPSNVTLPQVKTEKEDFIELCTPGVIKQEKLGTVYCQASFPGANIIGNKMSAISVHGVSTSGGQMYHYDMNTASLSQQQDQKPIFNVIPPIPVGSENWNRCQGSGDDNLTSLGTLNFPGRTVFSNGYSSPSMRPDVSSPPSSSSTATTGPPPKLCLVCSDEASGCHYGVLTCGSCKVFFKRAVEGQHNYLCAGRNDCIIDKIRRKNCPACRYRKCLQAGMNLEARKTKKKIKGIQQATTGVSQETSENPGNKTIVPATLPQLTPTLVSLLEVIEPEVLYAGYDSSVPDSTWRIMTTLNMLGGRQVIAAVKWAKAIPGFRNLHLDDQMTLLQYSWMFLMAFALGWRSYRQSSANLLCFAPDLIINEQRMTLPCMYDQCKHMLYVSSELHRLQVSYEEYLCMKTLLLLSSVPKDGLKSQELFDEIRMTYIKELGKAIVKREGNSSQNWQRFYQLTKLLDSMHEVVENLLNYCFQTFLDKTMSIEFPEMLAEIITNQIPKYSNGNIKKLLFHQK

[12] = metabolite profile in human hepatocytes; assay type: in vitro ADME; details: 10 μM of 1 for 4 h, UV 250 nm, normalized to largest peak
[13] = system: h Nic(cns)

hr H1, sequence (P35367 whole entry): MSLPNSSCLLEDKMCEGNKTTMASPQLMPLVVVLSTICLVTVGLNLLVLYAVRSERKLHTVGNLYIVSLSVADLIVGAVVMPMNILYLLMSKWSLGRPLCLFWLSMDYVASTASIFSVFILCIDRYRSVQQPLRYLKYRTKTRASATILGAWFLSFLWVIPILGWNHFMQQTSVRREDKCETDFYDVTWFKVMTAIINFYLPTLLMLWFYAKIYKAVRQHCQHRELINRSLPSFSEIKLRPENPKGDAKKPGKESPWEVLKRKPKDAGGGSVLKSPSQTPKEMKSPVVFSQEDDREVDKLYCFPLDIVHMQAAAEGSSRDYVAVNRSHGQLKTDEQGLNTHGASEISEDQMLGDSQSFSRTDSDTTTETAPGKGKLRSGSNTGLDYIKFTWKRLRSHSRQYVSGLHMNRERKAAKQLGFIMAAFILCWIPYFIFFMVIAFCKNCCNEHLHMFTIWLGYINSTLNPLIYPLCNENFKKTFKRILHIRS
hr GHS, sequence (Q92847 whole entry): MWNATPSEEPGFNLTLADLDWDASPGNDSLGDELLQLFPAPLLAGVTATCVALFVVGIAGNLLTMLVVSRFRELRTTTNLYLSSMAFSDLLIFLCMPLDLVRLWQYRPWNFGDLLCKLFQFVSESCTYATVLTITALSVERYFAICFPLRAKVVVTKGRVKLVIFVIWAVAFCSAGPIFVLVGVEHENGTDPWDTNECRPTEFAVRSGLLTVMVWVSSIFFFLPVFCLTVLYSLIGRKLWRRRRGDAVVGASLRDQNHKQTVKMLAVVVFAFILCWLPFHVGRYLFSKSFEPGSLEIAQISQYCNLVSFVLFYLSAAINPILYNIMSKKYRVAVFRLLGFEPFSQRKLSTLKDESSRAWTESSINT
hr NET, sequence (P23975 whole entry): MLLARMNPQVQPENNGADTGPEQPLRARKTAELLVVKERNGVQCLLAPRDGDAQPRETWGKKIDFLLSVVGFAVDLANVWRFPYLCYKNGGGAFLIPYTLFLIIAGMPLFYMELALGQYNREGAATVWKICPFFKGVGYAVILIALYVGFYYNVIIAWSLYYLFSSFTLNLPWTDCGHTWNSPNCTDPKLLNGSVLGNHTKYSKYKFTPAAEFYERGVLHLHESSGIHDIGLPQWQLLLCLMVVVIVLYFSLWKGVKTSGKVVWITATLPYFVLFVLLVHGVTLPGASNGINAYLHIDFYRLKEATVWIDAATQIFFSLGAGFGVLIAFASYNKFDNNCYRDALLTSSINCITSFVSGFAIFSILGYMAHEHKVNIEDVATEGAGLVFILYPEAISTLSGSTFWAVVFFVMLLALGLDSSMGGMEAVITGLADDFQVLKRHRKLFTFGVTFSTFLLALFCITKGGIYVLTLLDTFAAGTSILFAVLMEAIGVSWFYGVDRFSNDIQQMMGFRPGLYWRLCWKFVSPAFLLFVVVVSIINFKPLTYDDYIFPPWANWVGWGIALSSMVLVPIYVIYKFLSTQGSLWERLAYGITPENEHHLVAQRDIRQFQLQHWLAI
Nav1.5, sequence (Q14524 whole entry): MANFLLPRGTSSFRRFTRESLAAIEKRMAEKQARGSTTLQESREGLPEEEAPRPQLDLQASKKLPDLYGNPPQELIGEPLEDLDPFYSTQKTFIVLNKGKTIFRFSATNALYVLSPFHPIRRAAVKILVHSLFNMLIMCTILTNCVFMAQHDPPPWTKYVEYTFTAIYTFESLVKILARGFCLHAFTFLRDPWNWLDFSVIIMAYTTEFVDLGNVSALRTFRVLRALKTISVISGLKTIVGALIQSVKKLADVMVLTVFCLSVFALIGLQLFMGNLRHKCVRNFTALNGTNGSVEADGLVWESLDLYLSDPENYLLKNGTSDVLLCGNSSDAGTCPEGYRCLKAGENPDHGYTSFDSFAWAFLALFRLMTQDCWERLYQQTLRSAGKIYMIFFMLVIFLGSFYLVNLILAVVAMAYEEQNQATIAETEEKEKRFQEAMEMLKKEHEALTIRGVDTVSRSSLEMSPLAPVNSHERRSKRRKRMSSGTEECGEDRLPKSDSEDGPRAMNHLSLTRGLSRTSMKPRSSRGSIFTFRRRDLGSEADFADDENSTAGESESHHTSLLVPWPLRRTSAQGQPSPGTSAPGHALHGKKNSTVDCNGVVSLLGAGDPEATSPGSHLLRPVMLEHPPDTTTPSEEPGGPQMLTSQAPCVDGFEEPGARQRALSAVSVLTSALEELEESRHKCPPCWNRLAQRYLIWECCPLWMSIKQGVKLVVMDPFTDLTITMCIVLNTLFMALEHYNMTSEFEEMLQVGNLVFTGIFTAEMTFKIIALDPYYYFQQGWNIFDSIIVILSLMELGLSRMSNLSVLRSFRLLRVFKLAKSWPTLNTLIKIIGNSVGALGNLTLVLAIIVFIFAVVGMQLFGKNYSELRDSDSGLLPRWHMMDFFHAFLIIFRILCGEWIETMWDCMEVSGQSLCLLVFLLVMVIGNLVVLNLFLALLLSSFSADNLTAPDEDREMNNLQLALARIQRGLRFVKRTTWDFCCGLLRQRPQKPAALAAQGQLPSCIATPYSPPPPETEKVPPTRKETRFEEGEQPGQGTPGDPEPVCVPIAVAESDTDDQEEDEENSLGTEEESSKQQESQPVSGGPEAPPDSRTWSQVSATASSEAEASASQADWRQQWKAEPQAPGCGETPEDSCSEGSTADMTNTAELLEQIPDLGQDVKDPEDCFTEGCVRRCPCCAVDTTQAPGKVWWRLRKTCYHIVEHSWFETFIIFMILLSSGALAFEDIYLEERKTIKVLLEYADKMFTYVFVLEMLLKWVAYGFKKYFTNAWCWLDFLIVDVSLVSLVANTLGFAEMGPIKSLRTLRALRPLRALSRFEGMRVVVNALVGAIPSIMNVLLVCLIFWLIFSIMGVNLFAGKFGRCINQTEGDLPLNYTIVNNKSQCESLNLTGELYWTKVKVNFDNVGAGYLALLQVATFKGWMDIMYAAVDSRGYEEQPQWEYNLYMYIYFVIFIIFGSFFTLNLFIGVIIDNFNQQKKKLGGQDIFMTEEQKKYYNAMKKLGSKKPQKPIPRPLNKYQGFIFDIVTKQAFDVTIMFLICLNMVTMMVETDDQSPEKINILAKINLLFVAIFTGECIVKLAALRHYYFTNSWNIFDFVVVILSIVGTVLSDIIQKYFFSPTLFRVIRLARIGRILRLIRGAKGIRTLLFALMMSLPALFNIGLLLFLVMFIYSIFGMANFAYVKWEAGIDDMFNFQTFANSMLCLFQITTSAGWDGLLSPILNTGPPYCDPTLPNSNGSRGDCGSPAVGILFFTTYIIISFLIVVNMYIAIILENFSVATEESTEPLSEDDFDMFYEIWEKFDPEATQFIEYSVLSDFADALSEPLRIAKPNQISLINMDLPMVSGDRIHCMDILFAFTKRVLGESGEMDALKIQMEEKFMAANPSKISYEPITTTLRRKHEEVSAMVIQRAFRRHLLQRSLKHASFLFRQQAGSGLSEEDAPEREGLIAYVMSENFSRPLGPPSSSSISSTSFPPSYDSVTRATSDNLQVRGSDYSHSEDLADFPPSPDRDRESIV

`Cc1nc(C)c(C(=O)Nc2ccc(F)c(-c3nc4ncc(-c5ncccc5C)cn4n3)c2)o1` [compound 1, N-(4-Fluoro-3-(6-(3-methylpyridin-2-yl)-[1,2,4]triazolo[1,5-a]pyrimidin-2-yl)phenyl)-2,4-dimethyloxazole-5-carboxamide] gave an EC50/IC50 ([1]; hr H1) of over 30 µM, an inhibition at 10 µM ([1]; read-out: % inh/act @ 10 µM) of 10% and an inhibition at 30 µM ([1]; read-out: % inh/act @ 30 µM) of 24%. It also gave an EC50/IC50 ([2]; hr 5-HT1A ag) of over 30 µM, an inhibition at 10 µM ([2]; read-out: % inh/act @ 10 µM) of 1% and an inhibition at 30 µM ([2]; read-out: % inh/act @ 30 µM) of 1%. For the same molecule, the EC50/IC50 ([3]; hr NET) was over 30 µM, the inhibition at 10 µM ([3]; read-out: % inh/act @ 10 µM) was 19% and the inhibition at 30 µM ([3]; read-out: % inh/act @ 30 µM) was 24%. It also gave an EC50/IC50 ([4]; hr GHS) of over 30 µM, an inhibition at 10 µM ([4]; read-out: % inh/act @ 10 µM) of 12% and an inhibition at 30 µM ([4]; read-out: % inh/act @ 30 µM) of 12%. For the same molecule, the EC50/IC50 ([5]; hr Alpha2C) was over 30 µM, the inhibition at 10 µM ([5]; read-out: % inh/act @ 10 µM) was 13% and the inhibition at 30 µM ([5]; read-out: % inh/act @ 30 µM) was 32%. It also gave an EC50/IC50 [6] of over 50 µM, an inhibition at 10 µM [7] of 8% and an inhibition at 30 µM [7] of 3%. The abundance mouse [8] was “+++ (+++ > 75%)”, the EC50/IC50 ([9]; hr Ad3) was over 30 µM and the inhibition at 10 µM ([9]; read-out: % inh/act @ 10 µM) was 8%. For the same molecule, the inhibition at 30 µM ([9]; read-out: % inh/act @ 30 µM) was 37%, the “DN AUC PO” value [10] was 12 µM·h and the “DN Cmax PO” value [10] was 1.0 µM. For the same molecule, the EC50/IC50 ([11]; hr GR antag) was over 30 µM, the inhibition at 10 µM ([11]; read-out: % inh/act @ 10 µM) was 0% and the inhibition at 30 µM ([11]; read-out: % inh/act @ 30 µM) was 10%. The abundance human [12] was “+++ (+++ > 75%)”, the “% inh/act @ 10 µM” value [13] was 20% and the “% inh/act @ 30 µM” value [13] was 24%.
